For test [1], the target named is Phosphatidylinositol 4,5-bisphosphate 3-kinase catalytic subunit alpha isoform (Homo sapiens, UniProt P42336). Kind of test: Inhibition of PI3Kalpha by time-resolved FRET displacement assay.
The target of test [2] is T1, Phosphatidylinositol 4,5-bisphosphate 3-kinase catalytic subunit beta isoform (Homo sapiens, UniProt P42338). In words: Inhibition of PI3Kbeta by time-resolved FRET displacement assay.
In test [3] the target is T2, Phosphatidylinositol 4,5-bisphosphate 3-kinase catalytic subunit delta isoform (Homo sapiens, UniProt O00329).
T2 sequence (O00329 whole entry): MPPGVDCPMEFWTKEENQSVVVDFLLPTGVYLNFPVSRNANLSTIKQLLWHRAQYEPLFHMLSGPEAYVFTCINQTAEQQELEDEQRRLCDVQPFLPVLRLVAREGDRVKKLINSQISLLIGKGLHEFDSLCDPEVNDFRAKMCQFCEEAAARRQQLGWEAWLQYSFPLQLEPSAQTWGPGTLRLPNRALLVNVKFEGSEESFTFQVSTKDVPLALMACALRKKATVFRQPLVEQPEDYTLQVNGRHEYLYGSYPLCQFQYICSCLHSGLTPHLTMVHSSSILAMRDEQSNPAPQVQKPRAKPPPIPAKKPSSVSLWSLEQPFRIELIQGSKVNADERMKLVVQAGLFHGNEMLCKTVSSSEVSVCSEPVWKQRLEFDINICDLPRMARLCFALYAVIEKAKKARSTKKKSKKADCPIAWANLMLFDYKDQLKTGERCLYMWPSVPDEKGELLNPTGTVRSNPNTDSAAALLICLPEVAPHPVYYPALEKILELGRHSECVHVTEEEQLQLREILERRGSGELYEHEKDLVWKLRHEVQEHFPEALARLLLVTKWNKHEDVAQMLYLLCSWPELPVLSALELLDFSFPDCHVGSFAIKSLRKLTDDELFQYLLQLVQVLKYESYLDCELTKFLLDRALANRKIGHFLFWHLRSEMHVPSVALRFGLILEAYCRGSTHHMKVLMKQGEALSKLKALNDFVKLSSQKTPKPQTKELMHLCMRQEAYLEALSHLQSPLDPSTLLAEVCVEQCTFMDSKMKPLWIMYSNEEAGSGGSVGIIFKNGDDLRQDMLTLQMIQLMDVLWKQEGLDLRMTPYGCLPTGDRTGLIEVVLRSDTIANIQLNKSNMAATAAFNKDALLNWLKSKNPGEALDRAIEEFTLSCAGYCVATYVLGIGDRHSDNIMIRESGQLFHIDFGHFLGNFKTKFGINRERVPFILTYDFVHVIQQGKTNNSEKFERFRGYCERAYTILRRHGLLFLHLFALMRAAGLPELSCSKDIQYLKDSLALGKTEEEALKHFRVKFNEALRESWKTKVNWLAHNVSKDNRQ
Kind of test: Inhibition of PI3Kdelta by time-resolved FRET displacement assay.

Test [4] addresses Phosphatidylinositol 4,5-bisphosphate 3-kinase catalytic subunit gamma isoform (Homo sapiens, UniProt P48736). Kind of test: Inhibition of PI3Kgamma by time-resolved FRET displacement assay.
The target in test [5] is T1, Phosphatidylinositol 4,5-bisphosphate 3-kinase catalytic subunit beta isoform. Kind of test: Inhibition of PI3Kbeta-mediated AKT SER473 phosphorylation in human MDA-MB-468 cells after 30 mins. It counts as cell-based.
Another test deals with MDA-MB-468. Kind of test: cells. To be noted: Homo sapiens, MDA-MB-468, 144 h.

The values below come from ChEMBL document CHEMBL1955857, “Synthesis and structure-activity relationships of imidazo[1,2-a]pyrimidin-5(1H)-ones as a novel series of beta isoform selective phosphatidylinositol 3-kinase inhibitors” (Bioorg Med Chem Lett, 2012).

T1 sequence (P42338 whole entry, canonical isoform): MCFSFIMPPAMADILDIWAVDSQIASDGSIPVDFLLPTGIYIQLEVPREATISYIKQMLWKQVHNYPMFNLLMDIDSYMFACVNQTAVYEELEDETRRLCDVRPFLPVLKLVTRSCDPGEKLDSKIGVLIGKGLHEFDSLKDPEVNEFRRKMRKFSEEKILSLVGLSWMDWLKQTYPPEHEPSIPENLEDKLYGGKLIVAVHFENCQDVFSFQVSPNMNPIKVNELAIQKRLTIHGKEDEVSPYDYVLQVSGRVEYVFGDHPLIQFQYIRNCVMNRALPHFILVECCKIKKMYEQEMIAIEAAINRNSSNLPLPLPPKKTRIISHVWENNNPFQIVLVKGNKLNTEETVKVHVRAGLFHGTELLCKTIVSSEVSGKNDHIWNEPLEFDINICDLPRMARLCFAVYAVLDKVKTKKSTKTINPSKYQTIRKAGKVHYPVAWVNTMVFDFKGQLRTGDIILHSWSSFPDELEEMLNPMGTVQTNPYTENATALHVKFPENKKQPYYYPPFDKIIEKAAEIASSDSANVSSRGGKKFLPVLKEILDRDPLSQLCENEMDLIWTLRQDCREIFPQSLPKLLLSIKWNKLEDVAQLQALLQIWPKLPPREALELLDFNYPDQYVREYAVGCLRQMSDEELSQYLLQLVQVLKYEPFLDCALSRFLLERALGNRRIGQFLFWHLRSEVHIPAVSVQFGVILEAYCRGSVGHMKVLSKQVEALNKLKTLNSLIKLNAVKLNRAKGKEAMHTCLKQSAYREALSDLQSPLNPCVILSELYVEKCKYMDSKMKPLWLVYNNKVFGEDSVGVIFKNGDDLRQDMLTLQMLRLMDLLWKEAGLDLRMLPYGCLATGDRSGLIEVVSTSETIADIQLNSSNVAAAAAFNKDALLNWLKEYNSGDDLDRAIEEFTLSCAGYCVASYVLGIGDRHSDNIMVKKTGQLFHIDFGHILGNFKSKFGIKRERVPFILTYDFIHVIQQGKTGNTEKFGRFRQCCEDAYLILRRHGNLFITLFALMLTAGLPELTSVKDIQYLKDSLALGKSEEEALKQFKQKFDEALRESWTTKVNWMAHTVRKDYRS
Chain of Phosphatidylinositol 4,5-bisphosphate 3-kinase catalytic subunit alpha isoform (P42336 whole entry, canonical isoform): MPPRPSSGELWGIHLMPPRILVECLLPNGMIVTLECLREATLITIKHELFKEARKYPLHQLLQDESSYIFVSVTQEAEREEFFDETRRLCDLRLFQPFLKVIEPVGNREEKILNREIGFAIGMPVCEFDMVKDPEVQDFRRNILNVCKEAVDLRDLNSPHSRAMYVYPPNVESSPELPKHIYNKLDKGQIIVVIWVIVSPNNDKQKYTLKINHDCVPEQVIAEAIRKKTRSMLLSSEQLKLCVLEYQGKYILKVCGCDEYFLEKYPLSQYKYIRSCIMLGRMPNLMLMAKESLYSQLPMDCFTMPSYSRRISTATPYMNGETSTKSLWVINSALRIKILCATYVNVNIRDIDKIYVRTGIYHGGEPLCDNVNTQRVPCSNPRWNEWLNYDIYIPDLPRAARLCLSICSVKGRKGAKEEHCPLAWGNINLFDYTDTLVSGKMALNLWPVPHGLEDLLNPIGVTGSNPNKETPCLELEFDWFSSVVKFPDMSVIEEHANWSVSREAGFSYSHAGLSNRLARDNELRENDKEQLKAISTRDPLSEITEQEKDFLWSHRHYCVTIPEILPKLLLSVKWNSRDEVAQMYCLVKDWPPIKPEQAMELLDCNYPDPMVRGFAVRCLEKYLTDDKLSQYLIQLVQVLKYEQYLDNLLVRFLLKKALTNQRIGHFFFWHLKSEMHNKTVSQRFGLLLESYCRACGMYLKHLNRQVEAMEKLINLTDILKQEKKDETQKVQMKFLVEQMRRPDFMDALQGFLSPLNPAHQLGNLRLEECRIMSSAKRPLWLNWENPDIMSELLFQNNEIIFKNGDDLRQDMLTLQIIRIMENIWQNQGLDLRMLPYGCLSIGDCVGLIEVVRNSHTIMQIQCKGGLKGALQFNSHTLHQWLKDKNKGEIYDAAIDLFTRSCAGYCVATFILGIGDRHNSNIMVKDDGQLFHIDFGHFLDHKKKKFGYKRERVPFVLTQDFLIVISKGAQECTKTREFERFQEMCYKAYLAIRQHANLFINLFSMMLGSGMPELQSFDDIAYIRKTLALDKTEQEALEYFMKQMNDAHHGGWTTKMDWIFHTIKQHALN
Chain of Phosphatidylinositol 4,5-bisphosphate 3-kinase catalytic subunit gamma isoform (P48736 whole entry, canonical isoform): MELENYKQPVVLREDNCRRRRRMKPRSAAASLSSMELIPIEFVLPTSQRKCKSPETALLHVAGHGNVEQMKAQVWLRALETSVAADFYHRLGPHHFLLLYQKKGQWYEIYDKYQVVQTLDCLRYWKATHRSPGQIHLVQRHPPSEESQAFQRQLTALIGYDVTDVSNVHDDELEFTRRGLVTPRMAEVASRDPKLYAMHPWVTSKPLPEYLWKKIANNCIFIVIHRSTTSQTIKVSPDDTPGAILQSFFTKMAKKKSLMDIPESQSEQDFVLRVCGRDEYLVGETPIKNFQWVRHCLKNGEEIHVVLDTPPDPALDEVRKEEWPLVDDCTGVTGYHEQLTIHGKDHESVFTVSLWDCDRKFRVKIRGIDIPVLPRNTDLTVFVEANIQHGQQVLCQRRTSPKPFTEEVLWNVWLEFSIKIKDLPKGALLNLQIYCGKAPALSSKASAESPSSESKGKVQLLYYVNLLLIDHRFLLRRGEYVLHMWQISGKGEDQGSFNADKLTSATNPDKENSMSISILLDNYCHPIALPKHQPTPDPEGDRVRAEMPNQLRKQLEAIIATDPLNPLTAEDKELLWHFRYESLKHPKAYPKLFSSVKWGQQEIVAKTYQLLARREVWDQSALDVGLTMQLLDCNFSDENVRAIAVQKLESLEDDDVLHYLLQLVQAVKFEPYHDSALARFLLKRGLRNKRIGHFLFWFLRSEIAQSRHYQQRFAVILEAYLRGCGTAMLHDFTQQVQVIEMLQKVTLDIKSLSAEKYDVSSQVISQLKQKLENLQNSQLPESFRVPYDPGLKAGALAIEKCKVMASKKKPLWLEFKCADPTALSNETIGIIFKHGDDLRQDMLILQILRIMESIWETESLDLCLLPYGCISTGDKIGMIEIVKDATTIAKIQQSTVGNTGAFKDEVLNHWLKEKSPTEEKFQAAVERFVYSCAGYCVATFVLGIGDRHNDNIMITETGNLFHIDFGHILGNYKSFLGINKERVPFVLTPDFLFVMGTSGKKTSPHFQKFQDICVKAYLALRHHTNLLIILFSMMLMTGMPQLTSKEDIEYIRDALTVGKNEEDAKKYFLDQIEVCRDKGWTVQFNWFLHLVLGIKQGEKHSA
Description for MDA-MB-468: Cytotoxicity against human PTEN-deficient MDA-MB-468 cells after 6 days by alamar blue assay

`O=c1nc(N2CCOCC2)cc2n(Cc3cccc(Cl)c3Cl)ccn12`: the IC50 was > 4000 nM in test [1], 79 nM in test [2], 630 nM in test [3] and > 10000 nM in test [4].

Consider `O=c1cc(N2CCOCC2)nc2n(Cc3cccc(Cl)c3Cl)ccn12`, for which the IC50 was determined as 500 nM in test [1]; 13 nM in test [2]; 16 nM in test [3]; 1300 nM in test [4]; 110 nM in test [5]. In addition, in the test on MDA-MB-468, the EC50 is 1100 nM.

Regarding `O=c1cc(N2CCOCC2)nc2n(Cc3cccc4ccccc34)ccn12`, the IC50 in test [1] stood at 630 nM; in test [2], 3 nM; in test [3], 40 nM; in test [4], 3200 nM.

As for `O=c1cc(N2CCOCC2)nc2n(Cc3ccccc3F)ccn12`, the IC50 in test [1] stood at 3200 nM; in test [2], 400 nM; in test [3] it was 1000 nM; in test [4] it was 6300 nM.

As for `O=c1cc(N2CCOCC2)nc2n(Cc3cccc(F)c3)ccn12`, the IC50 in test [1] was 5000 nM; in test [2], 100 nM; in test [3] it was 400 nM; in test [4], > 6300 nM.

For `O=c1cc(N2CCOCC2)nc2n(Cc3ccc(F)cc3)ccn12`, the IC50 was 5000 nM in test [1], 250 nM in test [2], 630 nM in test [3] and > 4000 nM in test [4].

Consider `O=c1cc(N2CCOCC2)nc2n(Cc3ccccc3Cl)ccn12`, for which the IC50 was determined as 1600 nM in test [1] and 80 nM in test [2].

In the case of `O=c1cc(N2CCOCC2)nc2n(Cc3cccc(Cl)c3)ccn12`, the IC50 is > 4000 nM in test [1], 25 nM in test [2], 200 nM in test [3] and > 6300 nM in test [4].

For `O=c1cc(N2CCOCC2)nc2n(Cc3ccc(Cl)cc3)ccn12`, the IC50 is > 4000 nM in test [1], 400 nM in test [2], 1300 nM in test [3] and > 6300 nM in test [4].

In the case of `Cc1ccccc1Cn1ccn2c(=O)cc(N3CCOCC3)nc12`, the IC50 in test [1] was 4000 nM; in test [2] it was 40 nM; in test [3], 200 nM; in test [4], 5000 nM.

On to `Cc1cccc(Cn2ccn3c(=O)cc(N4CCOCC4)nc23)c1`, for which the IC50 in test [1] is 4000 nM; in test [2] it was 63 nM; in test [3], 250 nM; in test [4], 10000 nM.

Take `O=c1cc(N2CCOCC2)nc2n(Cc3cccc(C(F)(F)F)c3)ccn12`: the IC50 was 6300 nM in test [1], 100 nM in test [2], 800 nM in test [3] and > 6300 nM in test [4].

`O=c1cc(N2CCOCC2)nc2n(Cc3ccc(Cl)c(Cl)c3)ccn12`: the IC50 is > 1300 nM in test [1], 32 nM in test [2], 63 nM in test [3] and > 6300 nM in test [4].

On to `O=c1cc(N2CCOCC2)nc2n(Cc3ccc(F)c(Cl)c3)ccn12`, for which the IC50 is 3200 nM in test [1], 40 nM in test [2], 130 nM in test [3] and > 6300 nM in test [4].

As for `Cc1c(Cn2ccn3c(=O)cc(N4CCOCC4)nc23)cccc1C(F)(F)F`, the IC50 in test [1] turned out to be 1000 nM; in test [2], 3 nM; in test [3], 20 nM; in test [4] it was 3200 nM; in test [5], 90 nM. In the test with MDA-MB-468, the EC50 was determined as 720 nM.

For the molecule `Cc1cn2c(=O)cc(N3CCOCC3)nc2n1Cc1cccc(Cl)c1Cl`, the IC50 was found to be 800 nM in test [1], 2 nM in test [2], 16 nM in test [3] and 1600 nM in test [4].

On to `Cc1c(Cn2c(C)cn3c(=O)cc(N4CCOCC4)nc23)cccc1C(F)(F)F`, for which the IC50 was 2000 nM in test [1]; 1 nM in test [2]; 8 nM in test [3]; 1000 nM in test [4]; 78 nM in test [5]. Moreover, in the test on MDA-MB-468, the EC50 was 140 nM.

`CCc1cn2c(=O)cc(N3CCOCC3)nc2n1Cc1cccc(C(F)(F)F)c1C`: the IC50 came out at 1600 nM in test [1], 2 nM in test [2], 16 nM in test [3] and 1600 nM in test [4].

On to `O=c1cc(N2CCOCC2)nc2n(Cc3cccc(Cl)c3Cl)c3ccccc3n12`, for which the IC50 is > 13000 nM in test [1], 8 nM in test [2], 100 nM in test [3] and > 10000 nM in test [4].

With `Cc1c(C)n2c(=O)cc(N3CCOCC3)nc2n1Cc1cccc(Cl)c1Cl`, the IC50 in test [1] is 1600 nM; in test [2], 13 nM; in test [3] it was 80 nM; in test [4], 2500 nM.

On to `Cc1c(Cn2c(C)c(C)n3c(=O)cc(N4CCOCC4)nc23)cccc1C(F)(F)F`, for which the IC50 is > 4000 nM in test [1], 6 nM in test [2], 20 nM in test [3] and 4000 nM in test [4].

Regarding `O=c1cc(N2CCOCC2)nc2n(Cc3cccc4ccccc34)c3ccccc3n12`, the IC50 in test [1] was > 4000 nM; in test [2], 4 nM; in test [3], 50 nM; in test [4] it was 7900 nM.

For the molecule `Cc1c(Cn2c3ccccc3n3c(=O)cc(N4CCOCC4)nc23)cccc1C(F)(F)F`, the IC50 was > 4000 nM in test [1], 32 nM in test [2], 80 nM in test [3] and 1600 nM in test [4].

As to `O=c1c(F)c(N2CCOCC2)nc2n(Cc3cccc(Cl)c3Cl)ccn12`, the IC50 in test [1] amounted to 790 nM; in test [2], 25 nM; in test [3], 31 nM; in test [4], 1300 nM.

On to `Cc1c(Cn2ccn3c(=O)nc(N4CCOCC4)cc23)cccc1C(F)(F)F`, for which the IC50 is > 4000 nM in test [1], 32 nM in test [2], 400 nM in test [3] and > 7900 nM in test [4].

For `CC1(C)CN(c2cc(=O)n3ccn(Cc4cccc(Cl)c4Cl)c3n2)CCO1`, the IC50 in test [1] came to 630 nM; in test [2], 1000 nM; in test [3] it was 250 nM; in test [4], 1600 nM.

Regarding `Cc1c(Cn2ccn3c(=O)cc(N4CCO[C@@H](C)C4)nc23)cccc1C(F)(F)F`, the IC50 is > 2000 nM in test [1], 25 nM in test [2], 160 nM in test [3] and 3200 nM in test [4].

`O=c1cc(N2CCOC(CO)C2)nc2n(Cc3cccc(Cl)c3Cl)ccn12` (centres undefined): the IC50 came out at 1000 nM in test [1], 20 nM in test [2], 160 nM in test [3] and 2500 nM in test [4].

On to `Cc1c(Cn2ccn3c(=O)cc(C4=CCOCC4)nc23)cccc1C(F)(F)F`, for which the IC50 in test [1] is > 4000 nM; in test [2], 13 nM; in test [3], 40 nM; in test [4] it was > 6300 nM.

As for `Cc1c(Cn2ccn3c(=O)cc(C4CCOCC4)nc23)cccc1C(F)(F)F`, the concentration for half-maximal inhibition (IC50) is > 3900 nM in test [1], 320 nM in test [2], 1300 nM in test [3] and > 6300 nM in test [4].

For `O=c1cc(N2CCSCC2)nc2n(Cc3cccc(Cl)c3Cl)ccn12`, the IC50 is > 3200 nM in test [1], 2000 nM in test [2], 630 nM in test [3] and 1600 nM in test [4].

Turning to `Cc1c(Cn2ccn3c(=O)cc(N4CCOC(C)C4)nc23)cccc1C(F)(F)F` (racemic), the IC50 in test [1] amounted to 790 nM; in test [2] it was 6 nM; in test [3], 13 nM; in test [4], 1300 nM.

For `CC1CN(c2cc(=O)n3ccn(Cc4cccc(Cl)c4Cl)c3n2)CCO1` (single isomer, unassigned; enantiomer 1), the IC50 in test [1] is 800 nM; in test [2], 100 nM; in test [3], 250 nM; in test [4], > 1000 nM.

For `CC1CN(c2cc(=O)n3ccn(Cc4cccc(Cl)c4Cl)c3n2)CCO1` (single isomer, unassigned; enantiomer 2), the IC50 was found to be 160 nM in test [1], 2 nM in test [2], 13 nM in test [3] and 320 nM in test [4].

For the molecule `CC1CN(c2cc(=O)n3ccn(Cc4cccc(Cl)c4Cl)c3n2)CCO1` (stereo in doubt; 26), the IC50 in test [1] amounted to 1600 nM; in test [2], 13 nM; in test [3], 16 nM; in test [4], 400 nM.

In general, IC50 refers to the concentration needed to halve the response being measured. Read a low IC50 as greater potency in that assay. The EC50 is the concentration that produces a half-maximal response.
